The values that follow come from PubChem BioAssay (NCI).

Structures are written as SMILES.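 Cultured in 96-well plates, cells were exposed to test compound for 48 hours across five concentrations. GI50 is the concentration that inhibits growth by half. TGI: concentration producing complete growth inhibition.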

Test systems include COLO 205 colon; OVCAR-3 ovarian; ACHN renal; OVCAR-5 ovarian; SK-OV-3 ovarian; HS 578T breast; NCI-H522 lung; PC-3 prostate; MDA-MB-231 breast; M14 melanoma.
Common to all, as to assay: NCI-60 cell line screen, 48 h

For the compound `COc1ccc(C2c3cc4c(cc3OC(Nc3ccccc3)C2C)OCO4)cc1` (stereo not given), the TGI in the assay with COLO 205 colon, in the assay with OVCAR-3 ovarian, with ACHN renal, in the assay on OVCAR-5 ovarian, with SK-OV-3 ovarian and in the assay on HS 578T breast was > 100 µM in each case. Also, the TGI with NCI-H522 lung, with PC-3 prostate, with MDA-MB-231 breast and in the assay on M14 melanoma was > 100 µM throughout.
Take `O=C([C@H](O)[C@@H](O)c1cccc(Cl)c1)C12CC3CC(CC(C3)C1)C2`: the TGI in the assay on COLO 205 colon worked out at 4.23 µM; in the assay with OVCAR-3 ovarian, 4.37 µM; with ACHN renal it was 3.56 µM; with OVCAR-5 ovarian, 8.79 µM; in the assay with SK-OV-3 ovarian, 22.8 µM; in the assay on HS 578T breast it was 6.48 µM. Further, the TGI in the assay with NCI-H522 lung is 5.04 µM; in the assay with PC-3 prostate, 4.05 µM; in the assay on MDA-MB-231 breast it was 5.44 µM; with M14 melanoma, 7.16 µM.
As for `NC(=O)C1CCN(Cc2c(Cl)c(Cl)c(CN3CCC(C(N)=O)CC3)c(Cl)c2Cl)CC1`, the TGI is > 100 µM in the assay with COLO 205 colon; > 100 µM with OVCAR-3 ovarian; > 100 µM with ACHN renal; > 100 µM in the assay on OVCAR-5 ovarian; 46.5 µM in the assay on SK-OV-3 ovarian; > 100 µM with HS 578T breast. In addition, the TGI with NCI-H522 lung was > 100 µM; with PC-3 prostate it was > 100 µM; with MDA-MB-231 breast, 96 µM; in the assay with M14 melanoma it was > 100 µM.
As for `CS(=O)(=O)Nc1ccc2ccccc2c1`, the TGI with COLO 205 colon, with OVCAR-3 ovarian, in the assay on ACHN renal, in the assay with OVCAR-5 ovarian, with SK-OV-3 ovarian and in the assay on HS 578T breast was > 100 µM in each case. Also, the TGI in the assay on NCI-H522 lung, in the assay on PC-3 prostate, in the assay with MDA-MB-231 breast and in the assay on M14 melanoma was > 100 µM each time.
For `O=C(Nc1nn(C(=O)c2cccnc2)c(=O)s1)c1ccc(Cl)cc1`, the TGI was > 100 µM in the assay on COLO 205 colon; > 100 µM with OVCAR-3 ovarian; > 100 µM in the assay on ACHN renal; > 100 µM in the assay with OVCAR-5 ovarian; > 100 µM in the assay with SK-OV-3 ovarian; 60.3 µM in the assay with HS 578T breast. Besides, the TGI in the assay on NCI-H522 lung is 51.7 µM; in the assay on PC-3 prostate it was > 100 µM; with MDA-MB-231 breast it was > 100 µM; in the assay on M14 melanoma it was > 100 µM.
Take `CCN(CC)CCCCNc1c2ccc(Cl)cc2nc2ccc(OC)cc12`: the GI50 in the assay on COLO 205 colon is 0.24 µM; with OVCAR-3 ovarian it was 0.501 µM; with ACHN renal it was 0.371 µM; with OVCAR-5 ovarian it was 0.465 µM; with SK-OV-3 ovarian it was 0.637 µM; in the assay with HS 578T breast, 1.83 µM. The GI50 was 0.397 µM in the assay with NCI-H522 lung, 0.482 µM with PC-3 prostate, 0.478 µM in the assay on MDA-MB-231 breast and 1.15 µM with M14 melanoma. The TGI worked out at 1.32 µM in the assay on COLO 205 colon; 2.99 µM in the assay on OVCAR-3 ovarian; 2.27 µM in the assay on ACHN renal; 3.33 µM in the assay on OVCAR-5 ovarian; 3.46 µM with SK-OV-3 ovarian; 4.76 µM with HS 578T breast. Moreover, the TGI with NCI-H522 lung worked out at 2.66 µM; with PC-3 prostate it was 2.74 µM; in the assay on MDA-MB-231 breast it was 2.11 µM; with M14 melanoma it was 2.58 µM.
As for `CC(=N/NC(=S)N(C)C)/C(=N\NC(=S)N(C)C)c1ccccc1`, the TGI in the assay with COLO 205 colon stood at 3.33 µM; in the assay on OVCAR-3 ovarian, 3.68 µM; with ACHN renal, 3.26 µM; in the assay on OVCAR-5 ovarian it was 5.03 µM; in the assay with SK-OV-3 ovarian, 3.53 µM; in the assay on HS 578T breast, 6.26 µM. Further, the TGI was 3.78 µM in the assay with NCI-H522 lung, 4.64 µM in the assay on PC-3 prostate, > 23.8 µM in the assay with MDA-MB-231 breast and 4.14 µM in the assay with M14 melanoma.
With `NC(=O)NN=C1Cc2ccccc2C1`, the TGI in the assay with COLO 205 colon, in the assay on OVCAR-3 ovarian, with ACHN renal, in the assay on OVCAR-5 ovarian, in the assay on SK-OV-3 ovarian and with HS 578T breast was > 100 µM throughout. In addition, the TGI with NCI-H522 lung, with PC-3 prostate, in the assay with MDA-MB-231 breast and with M14 melanoma was > 100 µM throughout.
For the compound `COc1ccc(-c2cc3cc(Cl)cc(Cl)c3oc2=O)cc1OC`, the TGI was > 100 µM in the assay on COLO 205 colon; > 100 µM with OVCAR-3 ovarian; > 100 µM with ACHN renal; > 100 µM in the assay on OVCAR-5 ovarian; > 100 µM with SK-OV-3 ovarian; 76.1 µM with HS 578T breast. The TGI in the assay on NCI-H522 lung, with PC-3 prostate, in the assay on MDA-MB-231 breast and in the assay on M14 melanoma was > 100 µM each time.
Regarding `Cc1cc(-c2cc(C(C)(C)C)c(O)c(C(C)(C)C)c2)c(C)cc1-c1cc(C(C)(C)C)c(O)c(C(C)(C)C)c1`, the TGI with COLO 205 colon, with OVCAR-3 ovarian, in the assay with ACHN renal, in the assay with OVCAR-5 ovarian, in the assay with SK-OV-3 ovarian and with HS 578T breast was > 100 µM throughout. For the same compound, the TGI in the assay on NCI-H522 lung, in the assay with PC-3 prostate, with MDA-MB-231 breast and in the assay on M14 melanoma was > 100 µM each time.
With `CC(C)=CCc1c(O)cc2oc(-c3ccc(O)cc3O)cc(=O)c2c1O`, the TGI in the assay on COLO 205 colon was 62.6 µM; with OVCAR-3 ovarian, 51.5 µM; in the assay with ACHN renal, 77 µM; in the assay on OVCAR-5 ovarian, 81.3 µM; in the assay with SK-OV-3 ovarian, > 100 µM; in the assay with HS 578T breast, > 94 µM. Besides, the TGI is 53.6 µM with NCI-H522 lung, 98.2 µM with PC-3 prostate, 67.2 µM with MDA-MB-231 breast and > 77.9 µM in the assay with M14 melanoma.
Regarding `O=C1c2cc3c(cc2-c2c1c1ccc(Cl)cc1c(=O)n2CCCn1ccnc1)OCO3`, the GI50 in the assay with COLO 205 colon was 0.0552 µM; in the assay with OVCAR-3 ovarian, 0.0396 µM; in the assay on ACHN renal it was < 0.01 µM; in the assay on OVCAR-5 ovarian, 0.0448 µM; with SK-OV-3 ovarian, < 0.01 µM; with HS 578T breast, 1.54 µM. Moreover, the GI50 in the assay on NCI-H522 lung is 0.0182 µM; in the assay with PC-3 prostate, 0.0438 µM; in the assay on MDA-MB-231 breast, 0.959 µM; in the assay with M14 melanoma, < 0.01 µM. For the same compound, the TGI was > 100 µM in the assay with COLO 205 colon; 1.4 µM in the assay with OVCAR-3 ovarian; 1.09 µM in the assay on ACHN renal; 49 µM with OVCAR-5 ovarian; 26.6 µM in the assay on SK-OV-3 ovarian; > 100 µM in the assay on HS 578T breast. The TGI with NCI-H522 lung is 30.7 µM; in the assay on PC-3 prostate, > 100 µM; with MDA-MB-231 breast, > 100 µM; with M14 melanoma it was 11.9 µM.
Take `CC/C=N\N1C(N)=C(C#N)C(C#N)(C#N)C1CC` (stereo not given): the TGI in the assay on COLO 205 colon, in the assay on OVCAR-3 ovarian, with ACHN renal, in the assay on OVCAR-5 ovarian, in the assay with SK-OV-3 ovarian and with HS 578T breast was > 100 µM each time. Besides, the TGI in the assay on NCI-H522 lung, in the assay with PC-3 prostate, in the assay on MDA-MB-231 breast and in the assay on M14 melanoma was > 100 µM throughout.
Consider `CCC1(CC)C(=O)N(C(=O)c2cc(OC)c(OC)c(OC)c2)N(C(=O)c2cc(OC)c(OC)c(OC)c2)C1=O`, for which the TGI in the assay with COLO 205 colon, with OVCAR-3 ovarian, in the assay on ACHN renal, in the assay on OVCAR-5 ovarian, in the assay with SK-OV-3 ovarian and in the assay with HS 578T breast was > 50 µM throughout. In addition, the TGI with NCI-H522 lung, in the assay with PC-3 prostate, with MDA-MB-231 breast and in the assay with M14 melanoma was > 50 µM each time.
Consider `CC1=C(C(=O)OCCO[N+](=O)[O-])C(c2ccccc2[N+](=O)[O-])C(C(=O)OC(C)C)=C(C)N1` (stereo not given), for which the TGI in the assay on COLO 205 colon was found to be 29.7 µM; with OVCAR-3 ovarian it was 27.9 µM; with ACHN renal it was 87.6 µM; in the assay on OVCAR-5 ovarian, 30.4 µM; in the assay with SK-OV-3 ovarian, 39.8 µM; in the assay with HS 578T breast it was 41.2 µM. For the same compound, the TGI with NCI-H522 lung worked out at 30.5 µM; with PC-3 prostate, 23.2 µM; in the assay on MDA-MB-231 breast it was 29 µM; in the assay with M14 melanoma it was 29.3 µM.
With `CCOC(=O)[C@@H](Cc1ccc(CCl)cc1)NC(C)=O`, the TGI in the assay on COLO 205 colon is 43.9 µM; in the assay on OVCAR-3 ovarian, > 100 µM; with ACHN renal, 43.5 µM; in the assay with OVCAR-5 ovarian it was 44.2 µM; in the assay with SK-OV-3 ovarian, > 100 µM; with HS 578T breast, 60.8 µM. Also, the TGI is 35.5 µM in the assay with NCI-H522 lung, > 100 µM in the assay with PC-3 prostate, 81.6 µM in the assay on MDA-MB-231 breast and 89.3 µM in the assay with M14 melanoma.
`CCOC(=O)c1c(-c2ccccc2)c(OC)cn1C`: the TGI in the assay on COLO 205 colon, in the assay with OVCAR-3 ovarian, with ACHN renal, with OVCAR-5 ovarian, with SK-OV-3 ovarian and in the assay with HS 578T breast was > 10 µM throughout. For the same compound, the TGI with NCI-H522 lung, in the assay on PC-3 prostate, in the assay with MDA-MB-231 breast and in the assay with M14 melanoma was > 10 µM each time.
Turning to `CC[C@H](NC(=O)OC(C)(C)C)C(=O)NCP(=O)(OCc1ccc([N+](=O)[O-])cc1)OCc1ccc([N+](=O)[O-])cc1`, the TGI in the assay on COLO 205 colon was 30 µM; with OVCAR-3 ovarian it was > 100 µM; in the assay with ACHN renal, 69.7 µM; with OVCAR-5 ovarian, > 100 µM; with SK-OV-3 ovarian, 86 µM; in the assay on HS 578T breast it was > 100 µM. Also, the TGI in the assay with NCI-H522 lung, in the assay with PC-3 prostate, with MDA-MB-231 breast and in the assay on M14 melanoma was > 100 µM throughout.
As for `O=C(NC(C(F)(F)F)(C(F)(F)F)P(=O)(Cc1ccccc1)Cc1ccccc1)C(C(F)(F)F)C(F)(F)F`, the TGI in the assay on COLO 205 colon is 38 µM; in the assay with OVCAR-3 ovarian, > 100 µM; in the assay on ACHN renal it was 42.7 µM; with OVCAR-5 ovarian, 41.8 µM; in the assay on SK-OV-3 ovarian it was > 100 µM; in the assay with HS 578T breast it was > 100 µM. Besides, the TGI in the assay on NCI-H522 lung came out at 60.4 µM; in the assay with PC-3 prostate, 49 µM; in the assay on MDA-MB-231 breast it was 38.8 µM; in the assay on M14 melanoma it was 34.8 µM.
On to `CN1c2ccccc2C2=C(c3ccccc3)CC[C@@H](C(=O)N3C4CC5CC[C@@]4(CS3(=O)=O)C5(C)C)[C@@H]21` (stereo not given in full), for which the TGI in the assay with COLO 205 colon, in the assay with OVCAR-3 ovarian, with ACHN renal, in the assay with OVCAR-5 ovarian, in the assay with SK-OV-3 ovarian and in the assay with HS 578T breast was > 100 µM in each case. Also, the TGI with NCI-H522 lung, with PC-3 prostate, in the assay on MDA-MB-231 breast and in the assay with M14 melanoma was > 100 µM in each case.
